Measurements: US20250026748A1, “N-(5-SUBSTITUTED-[(1,3,4-THIADIAZOLYL) OR (THIAZOLYL)])(SUBSTITUTED)CARBOXAMIDE COMPOUNDS AND USE THEREOF FOR INHIBITING HUMAN POLYMERASE THETA” (Repare Therapeutics Inc., priority 2021, published 2025)

Tests used:
PXR nuclear receptor = PXR nuclear receptor (Homo sapiens (Human), UniProt O75469); assay: PXR method: luciferase reporter gene activation in transfected tumor cells; assay type: cell-based; conditions: test compound 0.03-10 μM; for fold induction at 24 h: compared with vehicle-treated cells, read-out: PXR activation (Max fold induction); for PXR activation (% Max activity): percentage of the response given by Rifampicin at 10 μM, 24 h
Protocol: An expression vector harboring a full-length PXR nuclear receptor plus the appropriate enhancers and promoters linked to the luciferase reporter gene were integrated into the tumor cells. Tumor cells transfected with the species-specific nuclear receptor and the corresponding response elements were seeded in a 96-well plate. Twenty-four hours after seeding, the cells were treated with six distinct concentrations (0.03-10 μM) of the test compound. The cells were then returned to the incubator for an additional 24 h. After this incubation period, the number of viable cells/well were determined using Promega's Cell Titer Fluor cytotoxicity assay. At the end of the assay, Promega's ONE-Glo was added to assess the receptor activation by monitoring reporter gene activity, and by comparing the results to vehicle-treated cells. Activation data were normalized to the number of viable cells/well. Results are expressed as a percentage of the response given by Rifampicin, the positive control, at a 10 μM dose.

[1] = Liver microsomal stability assay; assay type: in vitro ADME; conditions: pH 7.4; human liver microsomes 0.5 mg/mL, 1 μM compound, NADPH 1 mM, 37 °C
Protocol: Liver microsomes were thawed on ice prior to use. The incubation mixtures were prepared in 96-well plates and contained test compound or control (1 μM), liver microsomes (0.5 mg of microsomal protein/mL), MgCl2 (5 mM), phosphate buffer (100 mM, pH 7.4), 0.01% DMSO and 1% acetonitrile. A T=0 aliquot was withdrawn after 10 min pre-incubation at 37° C. on a shaker. Reactions were initiated by the addition of NADPH (final concentration of 1 mM) and the plate was kept on a shaker at 37° C., further samples were withdrawn at 5, 15, 30, and 60 minutes. At each timepoint, the reactions were immediately terminated by adding of ice-cold acetonitrile containing internal standard to the withdrawn sample. The extracted samples were centrifuged for 10 minutes at 3200 rpm to pellet the precipitated microsomal protein, and the supernatant was combined 1:1 with water and analyzed by LC-MS/MS. Using the T=0 peak area ratio as 100%, the percentage of parent compound remaining was calculated. For each compound, the In percentage remaining versus incubation time was plotted and the slope of this linear regression (−k) was converted to an in vitro T1/2 value and CLint using the equations below.

CYP3A4 [2] = target: T1, CYP3A4 (Homo sapiens (Human), UniProt P08684); assay: TDI method: time-dependent CYP inhibition, IC50 shift -NADPH/+NADPH; assay type: in vitro ADME; conditions: IC50 (-NADPH) divided by IC50 (+NADPH), 30 min pre-incubation, human liver microsomes
Protocol: Test compound or positive control inhibitors (CYP2C9: Tienilic acid; CYP2D6: paroxetine; CYP3A4: mifepristone) were dissolved in DMSO and a semi-log dilution (up to 50.0 μM) was prepared to 2 incubation plates and normalized for a final DMSO content of 0.5%. Human liver microsomes were diluted at 1 mg/mL with 100 mM potassium phosphate buffer pH 7.4 (1 mM MgCl2) and added to both incubation plates. After pre-incubation at 37° C., the reaction was started with the addition of NADPH (+NADPH condition) or with water (-NADPH condition). Plates were incubated for 30 min and 8 μL were transferred to a second incubation plate containing 72 μL of 1 mM NADPH, 20 μM diclofenac (CYP2C9), 20 μM dextromethorphan (CYP2D6) and 10 μM midazolam (CYP3A4) in 100 mM potassium phosphate buffer pH 7.4 (1 mM MgCl2). Plates were incubated for 10 min and the reaction was stopped by the addition of cold acetonitrile containing internal standard (1:1 v/v). Incubation plates were centrifuged at 3000 rpm for 10 minutes to precipitate protein, and the supernatant was used for LC-MS/MS analysis. Metabolite area ratio (4-OH-diclofenac, dextrorphan and 1-OH-midazolam) versus internal standard area ratio was used as the quantitative signal. Data were analyzed using the plot log of concentration (x axis) versus the percentage of inhibition (y axis) and IC50, Hill Slope and R^2 were determined. The IC50 shift was then calculated by dividing the IC50-NADPH condition by the IC50 obtained in the +NADPH condition.

CYP3A4 [3] = target: T1, CYP3A4; assay: Reversible CYP inhibition in human liver microsomes (midazolam probe); assay type: in vitro ADME; conditions: human liver microsomes 0.1 mg/mL, 2.5 μM midazolam, 5 min, test compound up to 30 μM
Protocol: A seven-point semi-log dilution of each test compound (up to […]) or positive control inhibitors for CYP2C9 (up to 1000 nM sulphenazole), CYP2D6 (up to 500 nM quinidine) and CYP3A4 (up to 250 nM ketoconazole) were dissolved in DMSO and added to the incubation plate using a Tecan 300 (normalized for 0.3% DMSO content). Final reaction conditions were: human liver microsomes (0.1 mg/mL), potassium phosphate buffer 100 mM pH 7.4, 1 mM magnesium chloride, 5 NM diclofenac, 5 NM dextromethorphan and 2.5 μM midazolam. After a pre-incubation at 37 00. The reaction was started with the addition of NADPH solution at the final concentration of 1 mM and carried out at 37 00 for 5 minutes. The reaction was stopped by the addition of 1 volume of cold acetonitrile with internal standard (labetalol) to the incubation plate. The incubation plate was centrifuged at 3000 rpm for 10 minutes to precipitate proteins, and the supernatant was analyzed by LC-MS/MS. Metabolite area ratio (4-OH-diclofenac, dextrorphan and 1-OH-midazolam) versus ISTD area ratio was used as the quantitative signal. Data were analyzed using the plot log of concentration (×-axis) versus the percentage of inhibition (y axis) and the IC50, Hill Slope and R^2 were determined.

[4] = target: PolQ ATPase enzyme (1-894) (Homo sapiens (Human), UniProt O75417); assay: Polθ ATPase enzymatic assay (0.5 nM enzyme concentration), ADP-Glo; assay type: biochemical; conditions: average IC50; 0.5 nM PolQ ATPase enzyme (1-894)
Method in brief: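 Enzyme (0.5 nM) pre-incubated 15 min at rt with 10-point inhibitor series in 50 mM Tris pH 7.5, 10% glycerol, 5 mM DTT, 10 mM MgCl2, 0.1 mg/ml BSA; reaction started with 20 nM fork DNA and 100 μM ATP, run 180 min at rt. ADP-Glo luminescence; IC50 from 4-parameter variable-slope fit.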

PXR nuclear receptor, sequence (O75469 whole entry): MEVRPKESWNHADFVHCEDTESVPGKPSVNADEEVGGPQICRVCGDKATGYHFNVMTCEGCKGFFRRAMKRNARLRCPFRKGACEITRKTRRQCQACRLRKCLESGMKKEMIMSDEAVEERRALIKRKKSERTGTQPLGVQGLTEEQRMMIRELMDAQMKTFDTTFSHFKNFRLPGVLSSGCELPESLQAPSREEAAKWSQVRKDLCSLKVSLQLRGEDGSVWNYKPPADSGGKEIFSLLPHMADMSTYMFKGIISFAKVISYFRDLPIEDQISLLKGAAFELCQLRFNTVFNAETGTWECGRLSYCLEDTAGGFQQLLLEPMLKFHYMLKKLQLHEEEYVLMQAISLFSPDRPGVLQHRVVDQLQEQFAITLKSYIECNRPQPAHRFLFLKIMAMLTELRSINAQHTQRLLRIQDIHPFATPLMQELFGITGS
T1 sequence (P08684 whole entry): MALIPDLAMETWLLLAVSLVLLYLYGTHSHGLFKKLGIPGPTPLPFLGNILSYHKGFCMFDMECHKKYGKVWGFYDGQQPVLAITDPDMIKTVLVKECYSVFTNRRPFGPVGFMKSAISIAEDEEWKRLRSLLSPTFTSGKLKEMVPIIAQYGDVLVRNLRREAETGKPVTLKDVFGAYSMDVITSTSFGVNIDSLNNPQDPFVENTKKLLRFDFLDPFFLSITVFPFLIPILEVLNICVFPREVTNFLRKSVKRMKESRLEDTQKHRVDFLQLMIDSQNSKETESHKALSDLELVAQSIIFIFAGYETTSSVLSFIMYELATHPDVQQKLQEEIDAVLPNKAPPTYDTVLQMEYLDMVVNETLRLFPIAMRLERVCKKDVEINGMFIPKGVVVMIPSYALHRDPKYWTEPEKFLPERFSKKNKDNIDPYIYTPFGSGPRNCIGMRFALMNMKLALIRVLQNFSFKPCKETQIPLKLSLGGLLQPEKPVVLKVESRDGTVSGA
PolQ ATPase enzyme (1-894), sequence (O75417 1-894): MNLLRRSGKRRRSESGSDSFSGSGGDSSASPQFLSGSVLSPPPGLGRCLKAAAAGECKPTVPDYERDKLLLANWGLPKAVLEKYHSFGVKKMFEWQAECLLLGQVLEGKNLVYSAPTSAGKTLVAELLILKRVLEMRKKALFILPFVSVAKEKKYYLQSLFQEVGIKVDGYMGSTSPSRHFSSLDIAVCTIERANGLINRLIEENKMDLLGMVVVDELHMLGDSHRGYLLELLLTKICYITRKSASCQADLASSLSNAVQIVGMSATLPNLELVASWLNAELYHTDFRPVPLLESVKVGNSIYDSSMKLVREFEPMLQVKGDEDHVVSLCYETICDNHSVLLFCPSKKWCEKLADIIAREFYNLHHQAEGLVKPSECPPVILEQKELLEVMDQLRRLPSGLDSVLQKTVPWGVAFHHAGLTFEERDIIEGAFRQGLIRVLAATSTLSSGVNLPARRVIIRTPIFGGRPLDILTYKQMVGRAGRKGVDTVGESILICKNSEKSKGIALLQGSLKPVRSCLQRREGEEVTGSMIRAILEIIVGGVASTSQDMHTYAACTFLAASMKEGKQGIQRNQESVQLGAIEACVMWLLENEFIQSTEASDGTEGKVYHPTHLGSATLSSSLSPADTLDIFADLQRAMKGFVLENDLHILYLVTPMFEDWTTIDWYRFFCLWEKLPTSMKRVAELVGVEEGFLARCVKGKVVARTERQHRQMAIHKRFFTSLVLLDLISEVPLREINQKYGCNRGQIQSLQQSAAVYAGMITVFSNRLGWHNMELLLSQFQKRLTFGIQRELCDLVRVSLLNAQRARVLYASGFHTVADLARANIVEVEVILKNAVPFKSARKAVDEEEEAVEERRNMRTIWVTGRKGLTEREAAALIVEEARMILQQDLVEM

COc1ccccc1-c1cnccc1C(=O)Nc1nnc(OCc2ccc(C#N)cc2)s1
fold induction at 24 h (PXR nuclear receptor): 7.9 | PXR activation (% Max activity) (PXR nuclear receptor): 36.0% | microsomal CLint at 1 μM [1]: 234 µL/min/mg | Time-dependent CYP3A4 inhibition-shift after 30 min with NADPH (CYP3A4 [2]): 3.6x | IC50 (CYP3A4 [3]): 450 nM

COc1ccc(F)cc1-c1cnccc1C(=O)Nc1nnc(OCc2ccc(C#N)cc2)s1
fold induction at 24 h (PXR nuclear receptor): 3.9 | PXR activation (% Max activity) (PXR nuclear receptor): 17% | microsomal CLint at 1 μM [1]: 174 µL/min/mg | Time-dependent CYP3A4 inhibition-shift after 30 min with NADPH (CYP3A4 [2]): 1x | IC50 (CYP3A4 [3]): 234 nM

COc1ccccc1-c1cnccc1C(=O)Nc1nnc(C#Cc2ccc(Cl)cc2)s1 [Compound 474]
IC50 [4]: 7.6 nM | fold induction at 24 h (PXR nuclear receptor): 1.5 | PXR activation (% Max activity) (PXR nuclear receptor): 3.0% | microsomal CLint at 1 μM [1]: 22.5 µL/min/mg | Time-dependent CYP3A4 inhibition-shift after 30 min with NADPH (CYP3A4 [2]): 1x | IC50 (CYP3A4 [3]): 1940 nM

COc1ccccc1-c1cnccc1C(=O)Nc1nnc(OCc2ccc(Cl)cc2)s1
fold induction at 24 h (PXR nuclear receptor): 8.8 | PXR activation (% Max activity) (PXR nuclear receptor): 46.0% | microsomal CLint at 1 μM [1]: 262 µL/min/mg | Time-dependent CYP3A4 inhibition-shift after 30 min with NADPH (CYP3A4 [2]): >6.5x | IC50 (CYP3A4 [3]): 1170 nM
